# Legend:
# [1] = tested on: skin cells (keratocytes) from salmon shells; test: Cell migration from salmon shells (Example 5, 2); assay type: cell-based, Atlantic salmon; set-up: cell migration from salmon shells, first time point: dose or concentration left out as unconfirmed
# Procedure: Primary cell cultures of skin cells (keratocytes) from salmon shells were isolated from freshwater Atlantic salmon. […] Negative control was albumin in PBS.
# The second day after isolation of shells, all wells with the different treatments were inspected under microscope and images taken.
# Salmon shells were plucked from freshwater salmon and placed in wells with culture medium, incubated at 13° C. without CO2 and inspected for cell migration the following days. […] Control was albumin in PBS. (n=6). The scale of the y—axis represents no cell migration (0%) to cell migration from all shells (100%). Different letters denote significant differences (p≤0,05).
# [2] = tested on: ATCC cells; test: Proliferation assay in ATCC human dermal fibroblasts (Example 5); assay type: cell-based; conditions: incubation until about 50% confluency, albumin controls
# Procedure: (§1) A commercial human dermal fibroblast cell line (ATCC PCS-201-012) was cultured in Dulbecco's modified Eagle's medium according to the method described by Vuong et al2.
# The proliferation assay measures the density/number of cells in culture by fluorescence staining of nucleic acids.
# FIG. 28 provides the measurement of cell proliferation after incubation with Lipid composition B until about 50% confluency. Results are presented as the mean±SEM (n=4). The asterisks (*) indicate significant difference between groups. Control 1 and 2 represent albumin equivalent to the albumin concentration in the 20 µM Lipid composition B substrate.
# [3] = tested on: ATCC human skin cells; test: Content of C26:6n-3 in ATCC human skin cells after supplementation of the culture medium (Example 5, 1B); assay type: cell-based; conditions: media with 10 and 20 μM for 4 days; increase from 0.7; p=0.001 (ANOVA)
# Procedure: as §1
# ATCC cells were cultivated in a media supplemented with 10 and 20 μM Lipid composition B for 4 days before harvesting for determination of fatty acid composition. It was made a pooled sample of three replicates per group prior to lipid extraction by the method by Folch et al1.
# [4] = tested on: skin cells (keratocytes) from salmon shells; test: Cellular content of C26:6n-3 in primary skin cells (keratocytes) from Atlantic salmon (Example 5, 2); assay type: cell-based; conditions: 20 µM group; 0% in the control group
# Procedure: Primary cell cultures of skin cells (keratocytes) from salmon shells were isolated from freshwater Atlantic salmon. The shells were carefully placed in plate wells and incubated at 13° C. in growth media (L-15) supplemented with 10 μM or 20 μM of the Lipid composition B (26:6n-3) or 25 ng/ml fibroblast growth factor (FGF) as a positive control. Negative control was albumin in PBS.
# [5] = tested on: human dermal fibroblast cell line (ATCC PCS-201-012); test: Scratch assay (in-vitro wound healing model) in human dermal fibroblasts (Example 5); assay type: cell-based; conditions: 10 μM, after 24 hours, control albumin in PBS
# Procedure: as §1
# ATCC cells were seeded in wells with 2 mL culture media supplemented with 1, 2 and 4 μM Lipid composition A. Control was albumin in PBS. At ˜90-100% confluency, a scratch was created, and wells were thereafter photographed at several time points up to 24 hours. The migration of cells into the scratch/closure of wound over time was examined in light microscopy and images were taken. The scratch/wound closure rate was measured by % confluency in scratch opening (the higher values the better closure of wound).
# Cells were seeded in wells with 2 mL culture media supplemented with 10 μM Lipid composition B (6 replicates). Control was albumin in PBS. At ˜90-100% confluency, a scratch was created, and wells were thereafter photographed at several time points up to 24 hours. […]
# FIG. 29 provides the effect of Lipid composition B on closure rate of scratch. […] Cells were then scratched and cell migration into wound was followed at different time points (0 and 24 hours shown), using Fiji/ImageJ software, as illustrated in figure A. Scratch size was analyzed as mean percentage decline (calculated from each well's original size at 0 hours to size measured at 24 hours (n=6, results presented in figure B).
smiles,measurement,setting,value
"CC/C=C\C/C=C\C/C=C\C/C=C\C/C=C\C/C=C\CCCCCCC(=O)O [Lipid composition B, C26:6n-3]",cell migration in salmon skin cell culture relative to control,[1]; 10 µM,significantly increased cell migration
same,"cell migration from salmon shells, last time point",[1]; low dose (10 µM),most effect on cell migration
same,"cell migration from salmon shells, first time point",[1]; relative to albumin control,"similar, immediate increased cell migration effect as the FGF"
same,cell count (proliferation) compared to controls,[2],significantly higher cell count
same,content of C26:6n-3 in ATCC human skin cells,[3],5.5 % of total FAs
same,cellular content of the C26:6n-3 fatty acid in salmon skin cells,[4],1.4%
same,wound closure rate by reduced size of wound diameter compared to control,[5],tendencies to increased wound closure rate
